Reference: PubChem BioAssay AID1259426 (Fisher Drug Discovery Resource Center, 2018)
The source made the active and inactive calls.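 How the source made its calls: active means EC50 under a set limit in control cells lacking the mosquito receptor, marking a fluorescence artifact; inactive means the rest.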

What follows are compounds tested against HEK293 Galpha15/GCaMP6s without NPYLR7, calcium fluorescence (assay: nonspecific activation in parental Galpha15/GCaMP6s cells – cell-based, HEK293 lacking NPYLR7, counter-screen for mosquito NPYLR7 agonist project, dose response (AID 1259426);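 further: potency for a rise in fluorescence over baseline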).

EC50	SMILES
7.28 µM	COCCOc1ccc(NS(=O)(=O)c2cn(C)c(Cl)n2)cn1
> 20 µM (inactive)	COc1ccc(N2CCN(c3cc(C(F)(F)F)nc(SCc4cccc(C(=O)NCc5ccccn5)c4)n3)CC2)cc1
> 20 µM (inactive)	CCCS(=O)(=O)N1CCN=C1SCc1ccccc1C
0.155 µM	NC(=S)N/N=c1\oc2cc(O)ccc2cc1-c1nc2ccccc2[nH]1
8.35 µM	COc1ccc(/C=C2\Oc3c(ccc4c3CN(C3CCS(=O)(=O)C3)CO4)C2=O)cc1 (configuration not stated)
< 0.039 µM	Cc1ccc(C(=O)C=Cc2ccc(N(C)C)cc2)o1
> 20 µM (inactive)	Cc1ccc(CNC(=O)NC(c2ccc3c(c2)OCCCO3)C(C)C)cc1F (configuration not stated)
0.0898 µM	CCOCCCN1C(=O)C(=Cc2ccccc2O)NC1=S
14.7 µM	CCOC(=O)C1=C(C)NC(C)=C(C(=O)OCC)C1c1cc(Cl)ccc1OC(F)F
> 20 µM (inactive)	COCCn1c(C)cn2c3c(=O)n(Cc4ccc(Cl)cc4)c(=O)n(C)c3nc12
> 20 µM (inactive)	O=C(Nc1cccc(-c2nnco2)c1)C1CCCCC1
> 20 µM (inactive)	CS(=O)(=O)Nc1nc2n(n1)C(c1ccccc1)CC(c1ccc(Cl)cc1)=N2 (configuration not stated)
> 20 µM (inactive)	Cc1cccc(Oc2nc3ccccn3c(=O)c2/C=C(\C#N)c2nc3ccccc3s2)c1
> 20 µM (inactive)	COc1ccc(CN2CCN(Cc3cccn3-c3ncccn3)CC2CCO)c(C)c1C (configuration not stated)
0.0533 µM	O=c1oc2cc(O)ccc2cc1-c1nc2ccccc2s1
inactive	CC(=NNc1ncnc2sc(C)c(C)c12)c1ccccn1

EC50	SMILES
4.79 µM	CC(C)N1CCc2c(sc(NC(=O)C3CC3)c2-c2nc3ccccc3s2)C1
7.71 µM	O=C(CC1SC(=O)NC1=O)Oc1ccc(/C=C2\SC(=O)NC2=S)cc1 (configuration not stated)
3.62 µM	CCN(CC)c1ccc2c(-c3ccccc3C(=O)O)c3ccc(=[N+](CC)CC)cc-3oc2c1
> 20 µM (inactive)	O=C1NC(c2ccc3c(c2)OCO3)C(C(=O)c2ccccc2)C(O)(C(F)(F)F)N1 (configuration not stated)
18.1 µM	O=C1SC(Nc2ccc(I)cc2)C(=O)N1c1ccccc1 (configuration not stated)
> 20 µM (inactive)	CCOC(=O)c1nc2ccccc2nc1N1CCN(C(=O)N2CCOCC2)CC1
> 20 µM (inactive)	Oc1ccc(-c2onc3ccc(Cl)cc23)cc1
> 20 µM (inactive)	CCC(C)n1cc(/C=C2/C(=O)NC(=O)N(c3ccc4c(c3)OCO4)C2=O)c2ccccc21 (configuration not stated)
> 20 µM (inactive)	CCOC(=O)c1cc(O)c(C(=O)OCC)s1
2.43 µM	CCOC=C(C#N)c1nc(C)cs1
> 20 µM (inactive)	CCOC(=O)N1CCC(NC(=O)c2sc3nc4c(c(C(F)(F)F)c3c2N)CC(C)CC4)CC1 (configuration not stated)
> 20 µM (inactive)	Cc1ccc(-c2nc3nc(N)n(C)c(=O)c3[nH]c2=O)cc1
> 20 µM (inactive)	COc1cc(/C=C2\SC(=S)N(c3cccc(C(=O)O)c3)C2=O)ccc1O
0.401 µM	CSc1nc(N)c2ncn([C@@H]3O[C@H](COP(=O)(O)OP(=O)(O)OP(=O)(O)O)[C@H](O)C3O)c2n1 (some centres not stated)
6.49 µM	CSCCC(C(=O)O)N1C(=O)/C(=C/c2ccc(O)cc2)SC1=S (configuration not stated)
> 20 µM (inactive)	CC(C)(C)NCC(O)c1ccc(O)c(CO)c1 (configuration not stated)
